Measured values taken from patent publication US20140221354A1, “IMIDAZO [1,2-a]PYRIDINE COMPOUNDS FOR USE IN THERAPY” (EMBLEM Technology Transfer GmbH, priority 2011, published 2014).

tested on: CellSensor® HRE-bla HCT-116 stably transfected reporter cell line; assay: HIF/HRE reporter assay; format: cell-based; details: Homo sapiens, inhibition of activated HIF signaling response, hypoxic conditions induced with deferoxamine (DFO), 24 h incubation, blue/green emission ratio, read-out: Evaluation
Method: Inhibition of an activated HIF signaling response under chemically-induced hypoxic conditions due to compound treatment was determined using the CellSensor® HRE-bla HCT-116 stably transfected reporter cell line from Invitrogen according to the manufacturer's instructions.
Cells were maintained as described previously and seeded into 384-well, clear-bottom plates (Corning 3712) at 15000 cells/well in 32 μl assay medium (Opti-MEM [Invitrogen], 0.5% FBS, 100 U/ml penicillin, 100 μg/ml streptomycin, 0.1 mM non-essential amino acids [NEAA], 1 mM sodium pyruvate, 5 mM HEPES [pH 7.3]). Following a 2 h incubation period, compounds (4 μl) were subsequently added to the cells at 10× concentrations in 5% DMSO and incubated under normal conditions for 30 min. To induce hypoxic conditions, 4 μl of a 2 mM deferoxamine (DFO) solution was added to the cells followed by 24 h incubation under standard assay conditions (as described). Control wells included wells containing only medium (no cells) and wells treated with 0.5% DMSO instead of compound.
Prior to the readout, the Substrate Loading Solution was prepared as described in the manufacturer's protocol and 10 μl added to each well. Following a further 2 h incubation period at room temperature and in the dark, fluorescence was measured at two wavelengths (blue channel: ex. 409 nm, em. 460 nm; green channel: ex. 409 nm, em. 530 nm) on a PerkinElmer Envision HTS. For the analysis, the average signal of the cell-free wells at 460 nm and 530 nm was first subtracted from the blue and green channel data, respectively. The blue/green emission ratios were then calculated for each well, dividing the background-corrected blue emission values by the background-corrected green emission values. […] values were determined from these ratios using GraphPad Prism (Prism 5, GraphPad software, Inc.).

CCN1CCN(Cc2c(-c3ccc([N+](=O)[O-])cc3)nc3ccc(-c4ccccc4)cn23)CC1 [Example 6, 3-((4-ethylpiperazin-1-yl)methyl)-2-(4-nitrophenyl)-6-phenylimidazo[1,2-a]pyridine] and CCCN1CCN(Cc2c(-c3ccc([N+](=O)[O-])cc3)nc3ccc(-c4ccccc4)cn23)CC1 [Example 5, 2-(4-nitrophenyl)-6-phenyl-3-((4-propylpiperazin-1-yl)methyl)imidazo[1,2-a]pyridine] fall in the same range of EC50: 500 to 1000 nM for the first, 500 to 1000 nM for the second.

First: CS(=O)(=O)c1ccc(-c2nc3ccc(-c4ccccc4)cn3c2CN2CCCNCC2)cc1 [Example 8, 3-((1,4-diazepan-1-yl)methyl)-2-(4-(methylsulfonyl)phenyl)-6-phenylimidazo[1,2-a]pyridine]
Second: COc1ccc(-c2nc3ccc(-c4ccccc4)cn3c2CN2CCCNCC2)cc1 [Example 18, 3-((1,4-diazepan-1-yl)methyl)-2-(4-methoxyphenyl)-6-phenylimidazo[1,2-a]pyridine]
The EC50 of the first is higher: > 1000 nM for the first, < 500 nM for the second. The second is the more potent here.

First: N#Cc1ccc(-c2nc3ccc(-c4cccnc4)cn3c2CN2CCCNCC2)cc1 [Example 29, 4-(3-((1,4-diazepan-1-yl)methyl)-6-(pyridin-3-yl)imidazo[1,2-a]pyridin-2-yl)benzonitrile]
Second: N#Cc1ccc(-c2nc3ccc(-c4ccncc4)cn3c2CN2CCCNCC2)cc1 [Example 27, 4-(3-((1,4-diazepan-1-yl)methyl)-6-(pyridin-4-yl)imidazo[1,2-a]pyridin-2-yl)benzonitrile]
The EC50 of the first is higher: > 1000 nM for the first, < 500 nM for the second. The second is the more potent here.

O=[N+]([O-])c1ccc(-c2nc3ccc(-c4ccccc4)cn3c2CN2CCNCC2)cc1 [Example 1, 2-(4-nitrophenyl)-6-phenyl-3-(piperazin-1-ylmethyl)imidazo[1,2-a]pyridine] and CN1CCN(Cc2c(-c3ccc([N+](=O)[O-])cc3)nc3ccc(-c4ccccc4)cn23)CC1 [Example 7, 3-((4-methylpiperazin-1-yl)methyl)-2-(4-nitrophenyl)-6-phenylimidazo[1,2-a]pyridine] cannot be ordered by EC50: < 500 nM for the first, < 500 nM for the second.

First: CN1CCCN(Cc2c(-c3ccc(C#N)s3)nc3ccc(-c4ccccc4)cn23)CC1 [Example 36, 5-(3-((4-methyl-1,4-diazepan-1-yl)methyl)-6-phenylimidazo[1,2-a]pyridin-2-yl)thiophene-2-carbonitrile]
Second: N#Cc1ccc(-c2nc3ccc(-c4ccccc4)cn3c2CN2CCCNCC2)cn1 [Example 16, 5-(3-((1,4-diazepan-1-yl)methyl)-6-phenylimidazo[1,2-a]pyridin-2-yl)picolinonitrile]
The EC50 of the first is lower: < 500 nM for the first, 500 to 1000 nM for the second.

N#Cc1ccc(-c2nc3ccc(-c4cnco4)cn3c2CN2CCCNCC2)cc1 [Example 39, 4-(3-((1,4-diazepan-1-yl)methyl)-6-(oxazol-5-yl)imidazo[1,2-a]pyridin-2-yl)benzonitrile] and N#Cc1ccc(-c2nc3ccc(-c4cncnc4)cn3c2CN2CCCNCC2)cc1 [Example 26, 4-(3-((1,4-diazepan-1-yl)methyl)-6-(pyrimidin-5-yl)imidazo[1,2-a]pyridin-2-yl)benzonitrile] cannot be ordered by EC50: > 1000 nM for the first, > 1000 nM for the second.

Cc1ccccc1-c1ccc2nc(-c3ccc(C#N)cc3)c(CN3CCCNCC3)n2c1 [Example 25, 4-(3-((1,4-diazepan-1-yl)methyl)-6-(o-tolyl)imidazo[1,2-a]pyridin-2-yl)benzonitrile] and Cc1cccc(-c2ccc3nc(-c4ccc(C#N)cc4)c(CN4CCCNCC4)n3c2)c1 [Example 24, 4-(3-((1,4-diazepan-1-yl)methyl)-6-(m-tolyl)imidazo[1,2-a]pyridin-2-yl)benzonitrile] cannot be ordered by EC50: < 500 nM for the first, < 500 nM for the second.

NC(=O)c1ccc(-c2nc3ccc(-c4ccccc4)cn3c2CN2CCCNCC2)cc1 [Example 10, 4-(3-((1,4-diazepan-1-yl)methyl)-6-phenylimidazo[1,2-a]pyridin-2-yl)benzamide] was tested, and the EC50 was > 1000 nM.
